What was measured:
tumor cells [1] = settings: cited from earlier work
Gumbus lymphoma cells = assay: Induction of apoptosis in Gumbus lymphoma cells (percentages of apoptotic cells); type: cell-based, human; settings: for dependence of the induction of apoptosis on singlet oxygen: 2 mM histidine (singlet oxygen scavenger); for dependence of the induction of apoptosis on singlet oxygen / ROS signal path of the induced apoptosis (inhibitor profile): Gumbus cells; for ROS signal path of the induced apoptosis (inhibitor profile): L-NAME, taurine, ABH
Procedure: 12 500 MKN-45 gastric carcinoma cells (A) or 25 000 Gumbus lymphoma cells (B) in 100 μl complete medium each either remained untreated (control) or received 2 mM histidine (singlet oxygen scavenger), 50 mM taurine (HOCl scavenger), or 2.4 mM L-NAME (NOS inhibitor). In Experiment A, additionally 10 mM mannitol (hydroxyl radical scavenger), 150 μM ABH (peroxidase inhibitor), 100 U/ml MnSOD (superoxide anion scavenger) and 25 μM FeTPPS (peroxynitrite decomposer) were used. Subsequently, the given concentrations of salicylic acid were added. After 5 hours (A) and 4 hours, respectively, of incubation at 37° C. the percentages of apoptotic cells were determined in duplicate batches according to the classical apoptosis features nuclear condensation, nuclear fragmentation, and membrane blebbing. Here, at least 200 cells were evaluated pre batch. […] Inhibitors: singlet oxygen scavenger histidine 2 mM; HOCl scavenger taurine 50 mM, NOS inhibitor L-NAME 2.4 mM, peroxidase inhibitor ABH 150 μM.

tumor cell catalase = target: T1, tumor cell catalase (Homo sapiens, UniProt P04040); assay: Catalase inhibition/inactivation in MKN-45 cells by challenge with exogenous peroxynitrite, NO donor or glucose oxidase; type: cell-based; parameters: endogenous in cells; host or cells: MKN-45 gastric carcinoma cells; settings: 200 μM peroxynitrite
T1 sequence (P04040 2-527 limits assumed): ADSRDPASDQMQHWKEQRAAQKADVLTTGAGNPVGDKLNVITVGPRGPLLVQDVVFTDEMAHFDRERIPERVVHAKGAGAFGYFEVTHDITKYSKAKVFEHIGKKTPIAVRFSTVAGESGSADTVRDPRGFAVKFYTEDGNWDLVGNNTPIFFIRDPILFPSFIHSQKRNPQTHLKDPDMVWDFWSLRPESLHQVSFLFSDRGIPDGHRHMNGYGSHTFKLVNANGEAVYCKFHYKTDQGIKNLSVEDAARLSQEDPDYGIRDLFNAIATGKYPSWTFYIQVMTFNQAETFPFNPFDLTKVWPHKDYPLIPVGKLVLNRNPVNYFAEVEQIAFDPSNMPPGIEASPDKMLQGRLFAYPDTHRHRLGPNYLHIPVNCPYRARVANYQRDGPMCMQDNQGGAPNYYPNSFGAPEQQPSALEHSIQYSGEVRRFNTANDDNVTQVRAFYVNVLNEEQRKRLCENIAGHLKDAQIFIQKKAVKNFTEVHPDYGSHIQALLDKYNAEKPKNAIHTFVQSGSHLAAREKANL
Procedure: Direct catalase inhibition with relevance to the induction of apoptosis in tumor cells can be determined by pre-incubating tumor cells at first in the presence of the singlet oxygen scavenger histidine (2 mM) with the substance to be tested in increasing concentration (between 10 and 30 minutes at 37° C.) and subsequently adding peroxynitrite in the concentration range between 10 and 200 μM. The tumor cells are protected from the apoptosis-triggering effect of peroxynitrite by their membranous catalase. An inhibition of the catalase partially or completely cancels this protection and in the presence of peroxynitrite leads to the induction of apoptosis. The presence of 2 mM histidine ensures that the measured induction of apoptosis is not a singlet oxygen-mediated inactivation of the catalase by destruction of its active center. Alternatively, instead of addition of histidine inhibition of the NADPH oxidase by 100 μM AEBSF may take place. With prevented superoxide anion production also no singlet oxygen formation in the test system is possible.
4000 MKN-45 cells per 100 μl in […] were treated with increasing concentrations of monoclonal antibodies against catalase “Anti-KAT” or Anti-EGFR. After 15 minutes either 200 μM peroxynitrite (“PON”), 0.5 mM DEA-NONOate (rapidly decomposing NO donor), or 2 mU/ml glucose oxidase (GOX) that continuously generates hydrogen peroxide were added. After another two hours at 37° C. the percentages of apoptotic cells were determined in duplicate batches.
The principle of identification is based on the fact that tumor cells (here MKN-45 gastric carcinoma cells) are protected from the apoptosis-triggering effect of exogenously added peroxynitrite by their membranous catalase. Addition of catalase inhibitors sensitizes the cells to the effect of exogenous peroxynitrite.
The experiment was performed in analogy to that described in FIG. 9 except that instead of Anti-KAT a monoclonal antibody against SOD was used. The cells were tested in two different densities, namely 4000 and 12 500 cells per 100 μl. The challenge to test the activity of catalase was carried out with 200 μM peroxynitrite, or 0.5 mM DEA NONOate or 2 mU/ml GOX.
Subsequently, 200 μM or no peroxynitrite was added. After 1.5 hours the percentages of apoptotic cells were determined in duplicate batches.
Subsequently, 200 μM or no peroxynitrite was added. After 1 hour the percentages of apoptotic cells were determined in duplicate batches.
12 500 MKN-45 cells in 100 μl medium received 100 μM AEBSF or no additive. After 15 minutes the given concentrations of cyanidine were added and the batches were incubated for 15 minutes at 37° C. Subsequently, 200 μM peroxynitrite (PON) were added or the batches were not treated with peroxynitrite (control). After 1 hour the percentages of apoptotic cells were determined in duplicate batches.
12 500 MKN-45 cells received no addition (control), or 2 mM histidine, or 100 μM AEBSF or 2.4 mM L-NAME immediately before the addition of the given concentrations of salicylic acid (“0 min”) or 20 minutes after addition of salicyl. 20 minutes after the addition of salicylic acid 200 μM peroxynitrite (PON) were added to all batches except the control batches. After another 2 hours the percentages of apoptotic cells were determined in duplicates.

[2] = test system: MKN-45 gastric carcinoma cells; assay: Induction of apoptosis in MKN-45 gastric carcinoma cells (percentages of apoptotic cells); type: cell-based, human; settings: for dependence of the induction of apoptosis on singlet oxygen / induction of apoptosis: substance alone; for dependence of the induction of apoptosis on singlet oxygen: 2 mM histidine (singlet oxygen scavenger); for induction of apoptosis: 12 500 MKN-45 cells in 100 μl, 4-6.5 hours at 37° C.
Procedure: 12 500 MKN-45 cells in 100 μl (duplicate batches) were treated with the given concentrations of salicylic acid or remained free from salicylic acid. After 10 minutes the given concentrations of cyanidine were added.
12 500 MKN-45 cells in 100 μl (duplicate batches) were treated with 0.1 μg/ml salicylic acid or remained free from salicylic acid (control). […] After 6.5 hours the percentages of apoptotic cells were determined in duplicate batches.
12 500 MKN-45 cells in 100 μl (duplicate batches) either received no additive (control), 2 mM of the singlet oxygen scavenger histidine or 25 μM Caspase-8 inhibitor. […] After another 15 minutes cyanidine was added in the given concentrations. After 6.5 hours of incubation at 37° C. the percentages of apoptotic cells were determined.
12 500 MKN-45 cells in 100 μl (duplicate batches) either received no additive (control), 2 mM of the singlet oxygen scavenger histidine or 25 μM Caspase-8 inhibitor. […] After 6.5 hours incubation at 37° C. the percentage of apoptotic cells was determined. […]
12 500 MKN-45 cells in 100 μl medium were incubated with increasing concentrations of the given active ingredients, in the presence or absence of 0.1 μg/ml salicylic acid for 6 hours and then, the percentages of the apoptotic cells were determined (repeated determination).

thrombocytes = settings: cited from earlier work
tumor cells [3] = settings: cited from earlier work; remark: listed apart in the source

Nc1nc[nH]n1 [3-aminotriazole]
sensitivity of tumor cells for ROS signaling-mediated apoptosis (autocrine and by interaction with non-transformed cells) (tumor cells [1]): become sensitive for these two processes

O=C(O)c1ccccc1O [salicylic acid]
dependence of the induction of apoptosis on singlet oxygen (Gumbus lymphoma cells): does not depend on singlet oxygen
ROS signal path of the induced apoptosis (inhibitor profile) (Gumbus lymphoma cells): In the low concentration range of the salicylic acid preferably the NO/peroxynitrite signal path runs, with higher concentrations the HOCl path predominates
induction of apoptosis (Gumbus lymphoma cells; substance alone, 25 000 Gumbus lymphoma cells in 100 μl, 4 hours at 37° C.): induces ROS-dependent induction of apoptosis
catalase inactivation, alone at the chosen concentration (tumor cell catalase; 6.25 ng/ml alone, MKN-45 (FIG. 21)): almost no catalase inactivation
catalase inhibition / sensitization to peroxynitrite with inhibited superoxide anion synthesis (tumor cell catalase; 100 μM AEBSF, MKN-45): independent of the superoxide anion synthesis
inhibition of tumor cell catalase (sensitization to exogenous peroxynitrite) (tumor cell catalase; MKN-45): inhibits the catalase of the tumor cells
requirement of singlet oxygen, superoxide anions and NO for catalase inhibition/inactivation (tumor cell catalase; 2 mM histidine, 100 μM AEBSF or 2.4 mM L-NAME, MKN-45 (FIGS. 14, 15)): independent of superoxide anions, NO and singlet oxygen
synergism with cyanidine in the induction of apoptosis [2]: Synergism is achieved
synergism with taxol in the induction of apoptosis [2]: Synergism is achieved
induction of apoptosis, substance alone at the concentration of the combination ([2]; 0.15 ng/ml cyanidine alone, 0.08 μg/ml salicylic acid alone, MKN-45 (FIG. 16)): remained ineffective
induction of apoptosis, alone at 0.1 μg/ml ([2]; 0.1 μg/ml, MKN-45 (FIG. 18)): ineffective in itself
ROS signal path of the induced apoptosis (inhibitor profile) ([2]; MKN-45, L-NAME, FeTPPS, taurine, ABH): In the low concentration range of the salicylic acid preferably the NO/peroxynitrite signal path runs, with higher concentrations the HOCl path predominates
concentration up to which almost no effect on apoptosis is shown ([2]; administered alone, MKN-45, 6 hours (FIG. 16)): up to 0.32 μg/ml
dependence of the induction of apoptosis on singlet oxygen ([2]; MKN-45): does not depend on singlet oxygen
induction of apoptosis [2]: induces ROS-dependent induction of apoptosis

CC(=O)O[C@H]1C(=O)[C@@]2(C)[C@H]([C@H](OC(=O)c3ccccc3)[C@]3(O)C[C@H](OC(=O)[C@H](O)[C@@H](NC(=O)c4ccccc4)c4ccccc4)C(C)=C1C3(C)C)[C@]1(OC(C)=O)CO[C@@H]1C[C@@H]2O [taxol]
dependence of the induction of apoptosis on singlet oxygen (Gumbus lymphoma cells): caused by a fast singlet oxygen-dependent step that inactivates catalase within the first hour
ROS signal path of the induced apoptosis (inhibitor profile) (Gumbus lymphoma cells): at low concentrations of taxol is via the NO/peroxynitrite path, at higher concentrations via the HOCl path
synergistic effect with salicylic acid on catalase inactivation (tumor cell catalase; 6.25 ng/ml salicylic acid, MKN-45, 1.5 hours (FIG. 21)): synergistic effect on the catalase inactivation
concentration up to which a necessary involvement of Caspase-8 can be seen ([2]; alone, 25 μM Caspase-8 inhibitor, MKN-45, 6.5 hours (FIG. 19)): up to 370 ng/ml
dependence of the induction of apoptosis on singlet oxygen ([2]; MKN-45): depends on singlet oxygen

Oc1ccc(C=Cc2cc(O)cc(O)c2)cc1 [resveratrol]
synergistic interaction with salicylic acid in the induction of apoptosis ([2]; 0.1 μg/ml salicylic acid, MKN-45, 6 hours (FIGS. 22-25)): synergistically reacts
induction of apoptosis [2]: still does not lead to a significant induction of apoptosis
minor increase of the superoxide anion production (thrombocytes; 6.25 and 12.5 μg/ml): statistically insignificant
production of superoxide anions, hydrogen peroxide, and singlet oxygen (thrombocytes): leads to a reduction of the production of superoxide anions, hydrogen peroxide, and singlet oxygen
superoxide anion production (tumor cells [3]): leads to a dramatic increase of the superoxide anion production

— patent US9801832B2, “Pharmaceutical composition having synergistic action of direct catalase inhibitors and modulators of no metabolism or of extracellular superoxide anion production which lead to catalase destruction” (Universitaetsklinikum Freiburg, priority 2012, dated 2017)
